From patent US20060263802A1 (priority 2003, published 2006)

Assays:
Assay type in all cases: binding
[1] = tested on: human monoclonal antibody CRJA
[2] = tested on: human monoclonal antibody CRJA; remark: listed apart in the source
[3] = tested on: human monoclonal antibody CRJB
[4] = tested on: human monoclonal antibody CRJB; remark: listed apart in the source
[5] = tested on: human monoclonal antibody CR57
[6] = tested on: human monoclonal antibody CR57; remark: listed apart in the source

Sequence	Binding of CRJA (10 μg/ml) to looped/cyclic peptide (PEPSCAN-ELISA) [1]	Binding of CRJA to linear peptide (PEPSCAN-ELISA signal) [2]	Binding of CRJB (10 μg/ml) to looped/cyclic peptide (PEPSCAN-ELISA) [3]	Binding of CRJB to linear peptide (PEPSCAN-ELISA signal) [4]	Binding of CR57 (10 μg/ml) to looped/cyclic peptide (PEPSCAN-ELISA) [5]	Binding of CR57 to linear peptide (PEPSCAN-ELISA signal) [6]	Binding of CRJA (10 μg/ml) to looped/cyclic peptide (PEPSCAN-ELISA signal) [1]	Binding of CRJB (10 μg/ml) to looped/cyclic peptide (PEPSCAN-ELISA signal) [3]	Binding of CR57 (10 μg/ml) to looped/cyclic peptide (PEPSCAN-ELISA signal) [5]	binding of antibody CR57 to looped/cyclic peptide (PEPSCAN OD) [5]
SKGCLRVGGRCHPHV	71	87	87	121	79	72	–	–	–	–
TIFNKTLMEADAHYK	96	100	91	123	114	107	–	–	–	–
FTNSRGKRASKGSET	–	90	–	111	–	83	88	82	89	–
AMQTSNETKWCPPDQ	90	85	58	114	84	104	–	–	–	–
VAVSSTYCSTNHDYT	–	106	–	114	–	85	88	83	103	–
RWLRTVKTTKESLVI	–	72	–	110	–	40	71	75	77	–
TCGFVDERGLYKSLK	100	104	79	120	84	47	–	–	–	–
SLLQQHMELLESSVI	101	108	85	163	113	124	–	–	–	–
VIPLVHPLADPSTVF	84	92	92	141	77	69	–	–	–	–
LLQQHMELLESSVIP	165	80	129	111	123	78	–	–	–	–
DGTWVAMQTSNETKW	45	63	58	114	56	69	–	–	–	–
YTIWMPENPRLGMSC	–	111	–	132	–	97	93	132	191	clearly bound
GFGKAYTIFNKTLME	86	98	83	123	94	78	–	–	–	–
NGIILGPDGNVLIPE	85	89	85	146	104	102	–	–	–	–
STNHDYTIWMPENPR	–	77	–	112	–	60	51	74	72	–
TIWMPENPRLGMSCD	–	93	–	106	–	69	102	82	97	–
IKMNGFTCTGVVTEA	–	88	–	108	–	68	99	86	93	–
GKCSGVAVSSTYCST	–	103	–	143	–	92	97	74	79	–
ELVRKREECLDALES	98	97	71	113	93	82	–	–	–	–
PSKGCLRVGGRCHPH	71	78	99	138	92	69	–	–	–	–
GKAYTIFNKTLMEAD	107	100	100	127	114	76	–	–	–	–
ADLDPYDRSLHSRVF	–	100	–	121	–	70	92	73	93	–
